The values below come from paper PMC7590151, “Chiral Cyclobutane-Containing Cell-Penetrating Peptides as Selective Vectors for Anti-Leishmania Drug Delivery Systems” (International Journal of Molecular Sciences, 2020).

The structures appear in SMILES notation.

This assay concerns Leishmania donovani promastigotes. As to the kind of experiment: Viability of Leishmania donovani promastigotes (MTT reduction). It counts as cell-based. Conditions: L. donovani promastigotes 20 × 10^6 cells/mL, 4 h, 26 °C, full range of concentrations assayed (comparison 15 vs 16 at 5, 10 and 25 μM). On the procedure:
The cellular viability in the presence of the peptides was assessed by the MTT reduction at both stages of the parasite after 4 h incubation (Figure 5).
The experiments were carried out with Leishmania donovani promastigotes (MHOM/SI/00/1S-2D strain) and Leishmania pifanoi amastigotes (MHOM/VE/60/Ltrod strain), respectively. Promastigotes were grown at 26 °C in RPMI medium supplemented with 10% of FCS, 2 mM L-glutamine, 20 U/mL unicillin 20 plus 48 µg/mL gentamicin.
The viability assays were carried out using the reduction of MTT as described. The parasites were aliquoted into 96-microwell plates at a final concentration of 20 × 10^6 cells/mL in HBSS supplemented with 10 mM D-glucose. The peptides were incubated for 4 h at the corresponding peptide concentration at 26 °C or 32 °C for promastigotes and axenic amastigotes, respectively. […] The resulting formazan was solubilized with […] (1% final concentration) and read at 595 nm in a Bio-Rad 640 microplate reader.
(a) L. pifanoi axenic amastigotes. […] Axenic Leishmania parasites (20 × 10^6 cells/mL) were incubated with the peptides, and MTT reduction measured immediately after 4 h incubation. […]
Figure 8 Viability of Leishmania donovani promastigotes treated with Dox-conjugates 15 and 16 along with Dox and Dox-TAT. Parasites were incubated with the respective reagents (20 × 10^6 cells/mL, 4 h, 26 °C), and MTT reduction measured afterwards. […]

As for `COc1cccc2c1C(=O)c1c(O)c3c(c(O)c1C2=O)C[C@@](O)(C(=O)CO)C[C@@H]3O[C@H]1C[C@H](N)[C@H](O)[C@H](C)O1` [doxorubicin], the “Toxicity towards promastigotes (in words)” value was “did not show any toxicity”.
